Patent US8404738B2 (Hoffmann-La Roche Inc., priority 2011, dated 2013)

Experiments:
recombinant human HDAC8 = biological target: T1, recombinant human HDAC8 (Homo sapiens, UniProt Q9BY41); test: HDAC8 inhibition: recombinant HDAC8 fluorometric assay; assay type: biochemical; conditions: recombinant human HDAC8, substrate Ac-Arg-His-Lys-Lys(ε-acetyl)-AMC; read-out: HDAC8 IC50
T1 construct: made in house; host or cells: insect cells
T1 sequence (Q9BY41 1-377): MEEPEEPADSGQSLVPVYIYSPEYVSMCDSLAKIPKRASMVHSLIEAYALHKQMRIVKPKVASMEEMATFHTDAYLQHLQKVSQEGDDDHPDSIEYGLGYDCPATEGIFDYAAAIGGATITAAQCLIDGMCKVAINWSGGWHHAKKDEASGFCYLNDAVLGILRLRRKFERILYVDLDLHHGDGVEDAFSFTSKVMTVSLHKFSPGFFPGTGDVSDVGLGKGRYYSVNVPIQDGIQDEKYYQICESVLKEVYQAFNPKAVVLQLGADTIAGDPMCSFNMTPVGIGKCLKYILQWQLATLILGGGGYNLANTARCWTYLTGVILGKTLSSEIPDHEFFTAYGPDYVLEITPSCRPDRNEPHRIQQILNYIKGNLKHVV
Description: HDAC8 Inhibition by Novel Compounds: Recombinant HDAC8 Fluorometric Assay.
A competitive inhibitory assay of HDAC8 was carried out by using recombinant HDAC8 and a commercial substrate Ac-Arg-His-Lys-Lys(ε-acetyl)-AMC.
Compounds were tested for their ability to inhibit histone deacetylase 8 using an in vitro deacetylation assay. The enzyme source for this assay was recombinant human HDAC8 protein expressed and purified from insect cells. […] The substrate consisted of a commercial product Ac-Arg-His-Lys-Lys(ε-acetyl)-AMC (substrate is available from Cayman Chemical). […] 1 μl of half-log diluted compounds were added into wells and incubated for 15 min at rt. After that, 8 μl of substrate solution was transferred to the wells and incubated for 30 min at rt. After deacetylation of the substrate by incubation with HDAC8 enzyme, subsequent exposure to a developing reagent produced a fluorophore that was directly proportional to the level of deacetylation. […] The fluorescence signal was measured by a FlexStation3 plate reader (excitation wave length 340-360 nm; emission wave length 440-465 nm). The HDAC8 IC50 was calculated after normalization and curve fitting using XLfit4.0 software. Inhibition %=[Mean(top)−signal(sample)]×100/[Mean(top)−Mean(bottom)].

HDAC6 = biological target: T2, HDAC6 (Homo sapiens, UniProt Q9UBN7); test: Tubulin acetylation cytoblot assay (A549 cells); assay type: cell-based; conditions: 17-18 h incubation, tubulin acetylation as marker of HDAC6 inhibition, read-out: Tub-Ac EC50
T2 construct: endogenous in cells; host or cells: A549 cells
T2 sequence (Q9UBN7 1-1215): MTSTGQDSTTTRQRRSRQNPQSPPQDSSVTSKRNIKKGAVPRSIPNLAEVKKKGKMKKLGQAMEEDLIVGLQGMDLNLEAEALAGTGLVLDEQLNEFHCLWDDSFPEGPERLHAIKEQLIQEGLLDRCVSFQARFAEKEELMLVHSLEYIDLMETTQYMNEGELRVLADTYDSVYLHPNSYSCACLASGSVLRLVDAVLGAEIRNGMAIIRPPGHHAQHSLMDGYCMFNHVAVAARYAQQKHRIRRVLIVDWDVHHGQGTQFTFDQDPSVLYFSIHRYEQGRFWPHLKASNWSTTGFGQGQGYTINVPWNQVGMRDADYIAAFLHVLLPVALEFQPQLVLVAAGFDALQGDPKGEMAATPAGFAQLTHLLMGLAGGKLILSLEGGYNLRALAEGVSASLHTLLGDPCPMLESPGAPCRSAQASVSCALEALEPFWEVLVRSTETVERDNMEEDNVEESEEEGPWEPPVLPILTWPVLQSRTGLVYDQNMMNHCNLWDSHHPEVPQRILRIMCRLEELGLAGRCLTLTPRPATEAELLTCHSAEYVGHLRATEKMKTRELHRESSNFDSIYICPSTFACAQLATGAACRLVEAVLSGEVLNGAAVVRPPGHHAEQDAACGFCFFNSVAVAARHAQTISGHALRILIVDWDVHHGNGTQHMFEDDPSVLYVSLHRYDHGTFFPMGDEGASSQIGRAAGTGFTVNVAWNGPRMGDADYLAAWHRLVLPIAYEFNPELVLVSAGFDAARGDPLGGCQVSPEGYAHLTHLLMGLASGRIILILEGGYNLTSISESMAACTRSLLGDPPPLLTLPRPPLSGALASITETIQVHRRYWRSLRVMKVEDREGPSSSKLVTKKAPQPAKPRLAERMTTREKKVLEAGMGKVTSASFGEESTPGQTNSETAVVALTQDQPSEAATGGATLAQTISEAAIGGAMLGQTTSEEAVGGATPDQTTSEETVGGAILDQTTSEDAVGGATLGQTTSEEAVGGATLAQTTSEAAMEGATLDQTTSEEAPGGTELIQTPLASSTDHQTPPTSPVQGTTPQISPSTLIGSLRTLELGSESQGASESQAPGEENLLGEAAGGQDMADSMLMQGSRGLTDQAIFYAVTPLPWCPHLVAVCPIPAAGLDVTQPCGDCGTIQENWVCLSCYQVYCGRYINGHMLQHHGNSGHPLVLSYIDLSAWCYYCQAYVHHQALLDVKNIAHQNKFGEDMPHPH
Description: Tubulin Acetylation Induction by Novel Compounds: Tubulin Acetylation Cytoblot Assay.
Tubulin acetylation is a PD marker for HDAC6 inhibition. The extent of tubulin acetylation represents the inhibitory effect on HDAC6.
Novel compounds were tested for their ability to inhibit HDAC6 using a cell-based deacetylation assay. Tubulin acetylation was detected by the anti-acetylated tubulin antibody (Sigma) and horse radish peroxidase (HRP) conjugated secondary antibody (KangChen Bio. Tech.). […] 20 μl of diluted compound solution was transferred to the cell culture plate and incubated for 17-18 h. After medium removal and fixation by formaldehyde (3.7% paraformaldehyde in TBS), the cells in the plates were treated with 180 μl of −20° C. MeOH and incubated for 5 min at rt. The cell lysis was incubated with 75 μl of primary anti-acetylated tubulin antibody and secondary HRP conjugated antibody solution (1:750 anti-acetylated tubulin, 1:750 HRP conjugated anti-mouse IgG in antibody dilution buffer not containing sodium azide) for 4 h at 4° C. By adding the HRP substrate, enhanced chemiluminescence (ECL) reagent (GE Healthcare) generated luminescence corresponding to the level of tubulin acetylation. So that 75 μl of ECL was added into the wells and the luminescence from each well was immediately quantified by the plate reader. Based on the luminescence reading, the Tub-Ac EC50s against HDAC6 of the tested compounds were calculated by plotting the curve with XLfit4.0 software. Inhibition %=[signal(sample)−Mean(bottom)]×100/[Mean(top)−Mean(bottom)]

[1] = tested on: p21 promoter-luciferase construct; test: p21 reporter gene induction (HeLa cells, p21 promoter-luciferase construct); conditions: for p21 RP3: relative gene level of p21 compared to MS275 at 3 μM; for p21 RP10: relative level of p21 compared to MS275 at 10 μM; for p21 RP30: relative level of p21 compared to MS275 at 30 μM;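 for all read-outs here: transfected HeLa cells exposed to compound for 15 h, luciferase luminescence read from lysates, p21 promoter lacks p53 site, proxy for cellular HDAC1/2/3 inhibition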
Description: As a surrogate for in-cell HDAC1/2/3 inhibition, p21 induction was used as a counterscreen to evaluate the selectivity of the compounds in the present invention toward HDAC6 or HDAC8.
The novel compounds of the present invention were tested for their ability to induce p21 gene expression using a reporter gene assay involving HeLa cells transfected with a p21 promoter-luciferase construct. The p21 promoter contained the Sp1/Sp3 binding site for HDAC but not the upstream p53 binding site. Briefly, the day before transfection, HeLa cells were seeded at 11,000 cells/well in a 96-well culture plate and incubated at 37° C. in 5% CO2 overnight. A transfection media was prepared prior to transfection according to the following procedure: (1) 5 μl serum-free DMEM, 0.15 μl Fugene 6 reagent, 40 ng p21-luc, 10 ng GFP were mixed gently and incubated at rt for 30 minutes; (2), then 98 μl DMEM (with 10% FBS, 1% penicillin and streptomycin) was added to the DNA: Fugene 6 reagent complex and mixed gently. For transfection, the medium was removed and replaced with 100 μl/well transfection media which was prepared according to the procedure above. After incubating the cells for 24 hours at 37° C. in 5% CO2, fresh media and test compounds were added to the wells and the cells further incubated for 15 hours at 37° C. in 5% CO2. Cells were lysed by adding 80 μl/well of a cell culture lysis reagent (Promega). 50 μl of each lysate was taken for GFP detection using an excitation wavelength of 486 nm and detection at 527 nm. 100 μl luciferase assay reagent (Promega) was then added to every 20 μl cell lysate for luminometer detection.

| Structure (SMILES) | IC50 (recombinant human HDAC8) [nM] | EC50 (HDAC6) [nM] | p21 RP3 [1] | p21 RP10 [1] | p21 RP30 [1] |
| --- | --- | --- | --- | --- | --- |
| O=C(NO)c1ccc(NC2CCN(c3cc(F)cc(Cl)c3)C2=O)cc1 (centres unmarked) [Example 21, 4-[1-(3-Chloro-5-fluoro-phenyl)-2-oxo-pyrrolidin-3-ylamino]-N-hydroxy-benzamide] | 1010 | 4690 | 1.56 | 0.48 | 0.28 |
| O=C(NO)c1ccc(NC2CCN(c3cc(Cl)ccc3F)C2=O)cc1 (centres unmarked) [Example 22, 4-[1-(5-Chloro-2-fluoro-phenyl)-2-oxo-pyrrolidin-3-ylamino]-N-hydroxy-benzamide] | 1930 | 1320 | 0.42 | 0.28 | 0.39 |
| O=C(NO)c1ccc(NC2CCN(c3cccc(Cl)c3Cl)C2=O)cc1 (centres unmarked) [Example 24, 4-[1-(2,3-Dichloro-phenyl)-2-oxo-pyrrolidin-3-ylamino]-N-hydroxy-benzamide] | 770 | 2480 | 0.11 | 0.02 | 0.02 |
| O=C(NO)c1ccc(NC2CCN(c3ccc(Cl)c(Cl)c3)C2=O)cc1 (centres unmarked) [Example 25, 4-[1-(3,4-Dichloro-phenyl)-2-oxo-pyrrolidin-3-ylamino]-N-hydroxy-benzamide] | 970 | 4330 | 0.00 | 0.14 | −0.03 |
| O=C(NO)c1ccc(NC2CCN(c3cc(Cl)cc(Cl)c3)C2=O)cc1 (centres unmarked) [Example 26, 4-[1-(3,5-Dichloro-phenyl)-2-oxo-pyrrolidin-3-ylamino]-N-hydroxy-benzamide] | 4690 | 4940 | 0.42 | 0.06 | 0.04 |
| O=C(NO)c1ccc(NC2CCN(c3c(Cl)cccc3Cl)C2=O)cc1 (centres unmarked) [Example 27, 4-[1-(2,6-Dichloro-phenyl)-2-oxo-pyrrolidin-3-ylamino]-N-hydroxy-benzamide] | 750 | 2380 | 0.11 | 0.03 | 0.04 |
| Cc1cc(F)cc(C)c1N1CCC(Nc2ccc(C(=O)NO)cc2)C1=O (centres unmarked) [Example 28, 4-[1-(4-Fluoro-2,6-dimethyl-phenyl)-2-oxo-pyrrolidin-3-ylamino]-N-hydroxy-benzamide] | 1860 | 4110 | 0.04 | 0.01 | 0.01 |
| O=C(NO)c1ccc(NC2CCN(c3ccc(Cl)c(CO)c3)C2=O)cc1 (centres unmarked) [Example 29, 4-[1-(4-Chloro-3-hydroxymethyl-phenyl)-2-oxo-pyrrolidin-3-ylamino]-N-hydroxy-benzamide] | 750 | 13800 | 0.55 | 0.10 | 0.12 |
| O=C(NO)c1ccc(NC2CCN(c3cccc(Oc4ccccc4)c3)C2=O)cc1 (centres unmarked) [Example 30, N-Hydroxy-4-[2-oxo-1-(3-phenoxy-phenyl)-pyrrolidin-3-ylamino]-benzamide] | 3210 | 2280 | 0.13 | 0.09 | 0.05 |
| O=C(NO)c1ccc(NC2CCN(c3ccc(Oc4ccccc4)cc3)C2=O)cc1 (centres unmarked) [Example 31, N-Hydroxy-4-[2-oxo-1-(4-phenoxy-phenyl)-pyrrolidin-3-ylamino]-benzamide] | 4140 | 9780 | 0.09 | 0.07 | 0.05 |
| O=C(NO)c1ccc(NC2CCN(c3cccc(-c4ccccc4)c3)C2=O)cc1 (centres unmarked) [Example 32, 4-(1-Biphenyl-3-yl-2-oxo-pyrrolidin-3-ylamino)-N-hydroxy-benzamide] | 710 | 700 | 0.38 | 0.08 | 0.15 |
| O=C(NO)c1ccc(NC2CCN(c3cccc(-n4cccc4)c3)C2=O)cc1 (centres unmarked) [Example 33, N-Hydroxy-4-[2-oxo-1-(3-pyrrol-1-yl-phenyl)-pyrrolidin-3-ylamino]-benzamide] | 970 | 680 | 0.45 | 0.41 | 0.18 |
| O=C(NO)c1ccc(NC2CCN(c3ccc(-n4ccnc4)cc3)C2=O)cc1 (centres unmarked) [Example 34, N-Hydroxy-4-[1-(4-imidazol-1-yl-phenyl)-2-oxo-pyrrolidin-3-ylamino]-benzamide] | 2890 | 10600 | 0.36 | 0.12 | 0.06 |
| O=C(NO)c1ccc(NC2CCN(c3cccc(-c4cnco4)c3)C2=O)cc1 (centres unmarked) [Example 35, N-Hydroxy-4-[1-(3-oxazol-5-yl-phenyl)-2-oxo-pyrrolidin-3-ylamino]-benzamide] | 610 | 2040 | 0.44 | 0.25 | 0.20 |
| CN(C)CCOc1cccc(N2CCC(Nc3ccc(C(=O)NO)cc3)C2=O)c1 (centres unmarked) [Example 36, 4-{1-[3-(2-Dimethylamino-ethoxy)-phenyl]-2-oxo-pyrrolidin-3-ylamino}-N-hydroxy-benzamide] | 490 | 2050 | 0.55 | 0.18 | 0.45 |
| O=C(NO)c1ccc(NC2CCN(c3cccc4ccccc34)C2=O)cc1 (centres unmarked) [Example 37, N-Hydroxy-4-(1-naphthalen-1-yl-2-oxo-pyrrolidin-3-ylamino)-benzamide] | 930 | 2160 | 0.04 | 0.04 | 0.06 |
